Like-named read-outs stand apart in the source and are kept apart here.
How the values were obtained:
HeLa = assay: Cytotoxicity (viable cells) in HeLa; assay type: cell-based; settings: read-out: IC50 in cancer cell lines, HeLa
Protocol: The compounds of the present invention were screened initially in leukemic and cervical cancer cell lines (Table 1). […] In cervical cancer cell line HeLa, IC50 was 5 and 2 μM, respectively for SCR116 and SCR132 (FIG. 5A-B).
Ligase IV specificity of the compounds of the present invention inside the cells were also determined using Ligase IV knock out (KO) cell line N114 compared to the wild type Nalm6 (Table 2, FIGS. 5C, D, E and F). […] Table 1 showing IC50 of SCR7 derivatives in cancer cell lines Nalm6 and HeLa. IC50 was calculated using GraphPad Prism software from the percentage of viable cells following treatment with the compounds at 48 h. Table 2 showing IC50 of SCR116 and SCR132 in a panel of 16 cancer cell lines.

Molt4 derived xenograft = assay: Mouse xenograft model, Molt4; assay type: in vivo; settings: for Tumor volume: alternate days; for Survival: tumor control animals died by day 18
Protocol: Effect of the compounds was further evaluated in mouse xenograft model generated using Ligase IV high human leukemic cell line, Molt4. Oral doses of SCR116 and SCR132 at 10 mg/kg and 15 mg/kg respectively were administered on alternate days.

[1] = test system: B cells (CD19+) and T cells (CD3+); assay: B and T cells after 28 days SCR116 treatment; assay type: in vivo, swiss albino mice; settings: oral 80, 160 and 320 mg/kg b.wt.
Protocol: FIG. 14(A-B) depicts the evaluation of effect on B cells after SCR 116 treatment for 28 days in normal swiss albino mice A. After oral administration of low, medium, and high concentrations of SCR116 (80, 160 and 320 mg/kg b.wt. respectively). B is showing quantitation of the total B cell population (CD19+). (ns: not significant, *p<0.05: **p<0.005), in accordance with an implementation of the present disclosure.
FIG. 15(A-B) depicts the evaluation of the effect on T cells after SCR116 treatment for 28 days in normal swiss albino mice. A. After oral administration of low, medium and high concentrations of SCR116 (80, 160 and 320 mg/kg b.wt. respectively). B. is showing the quantitation of the total T cell population (CD3+). (ns: not significant, *p<0.05: **p<0.005), in accordance with an implementation of the present disclosure.
FIG. 13 depicts the blood parameters analysis of Swiss albino mice after 10 days of dose-ranging study after treating with SCR116 and SCR132. A. RBC (n=3). B. Hemoglobin (n=3). C. MCHC (n=3). D. Total leukocyte count (n=3). E. Platelet count (n=3) (ns: not significant, *p<0.05: **p<0.005).

[2] = Homo sapiens, HeLa, 48 h, Table 1, 48 h

Compound	IC50 (HeLa; [2]) [µM]	IC50 (HeLa; Homo sapiens, HeLa, Table 2) [µM]	Tumor volume (Molt4 derived xenograft; oral 10 mg/kg)	Survival (Molt4 derived xenograft; oral 10 mg/kg)	Production of B cells [1]	Production of T cells [1]	IC50 (HeLa; Table 2, listed as SCR132) [µM]	Tumor volume (Molt4 derived xenograft; oral 15 mg/kg)	Survival (Molt4 derived xenograft; oral 15 mg/kg)
Nc1nc(S)nc(O)c1/N=C/c1ccc([N+](=O)[O-])s1 [Compound 16, (E)-6-amino-2-mercapto-5-(((5-nitrothiophen-2-yl)methylene)amino)pyrimidin-4-ol]	5.92	5	effectively reduced the tumor volume	survived the entire experimental period	no significant changes	no significant changes	–	–	–
Nc1nc(S)nc(O)c1/N=C/c1sc(Cl)nc1Cl [Compound 32, (E)-6-amino-5-(((2,4-dichlorothiazol-5-yl)methylene)amino)-2-mercaptopyrimidin-4-ol]	2.08	2	–	–	–	–	2.08	effectively reduced the tumor volume	survived the entire experimental period

From US20250100977A1, “MERCAPTOPYRIMIDINE COMPOUNDS THAT INHIBIT NONHOMOLOGOUS END JOINING AND METHODS THEREOF” (INDIAN INSTITUTE OF SCIENCE, priority 2021, published 2025)
